In general, EC50 refers to the midpoint of the concentration-response curve.

Read-outs that look alike come from different tables or passages of the source.

One assay addresses T1, VEGF (Homo sapiens, UniProt P15692).
T1 sequence (P15692 27-191 isoform P15692-4): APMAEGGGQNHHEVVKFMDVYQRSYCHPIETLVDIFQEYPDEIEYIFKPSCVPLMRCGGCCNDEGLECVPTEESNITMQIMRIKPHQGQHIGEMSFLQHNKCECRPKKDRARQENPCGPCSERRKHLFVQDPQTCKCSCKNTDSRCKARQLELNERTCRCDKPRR
Kind of assay: Biacore biosensor: inhibition of VEGF binding to immobilised heparin and heparan sulfate. The following applies: inhibitor 0.034 μM, VEGF 0.025 μM. Here is the method: (§1) Assays were performed using a Biacore™ 2000 optical biosensor obtained from Biacore AB, Uppsala, Sweden. The biosensor was operated in accordance with the manufacturer's instructions. Briefly, neutravidin was covalently coupled to the surface of CM5 chips of the biosensor and then either biotinylated heparin (1 μg/ml) or biotinylated heparan sulfate ([…]) bound to the immobilised neutravidin. Mixtures of a test compound and a growth factor or other effector compound were preincubated for 2 to 5 minutes and the mixtures then added to individual biosensor cuvettes. Binding of growth factor or effector compound to the heparin or heparan sulfate was then monitored for approximately 5 minutes with the biosensor.
(§2) The tabulated values are the IC50 in μM or % inhibition of binding of the growth factor to the immobilised heparan sulfate (HS) or heparin.

The target in assay [1] is T2, human platelet heparanase (Homo sapiens, UniProt Q9Y251).
T2 construct: 10 ng of purified human platelet heparanase; from tissue; host or cells: human platelets
T2 sequence (Q9Y251 158-543 limits assumed): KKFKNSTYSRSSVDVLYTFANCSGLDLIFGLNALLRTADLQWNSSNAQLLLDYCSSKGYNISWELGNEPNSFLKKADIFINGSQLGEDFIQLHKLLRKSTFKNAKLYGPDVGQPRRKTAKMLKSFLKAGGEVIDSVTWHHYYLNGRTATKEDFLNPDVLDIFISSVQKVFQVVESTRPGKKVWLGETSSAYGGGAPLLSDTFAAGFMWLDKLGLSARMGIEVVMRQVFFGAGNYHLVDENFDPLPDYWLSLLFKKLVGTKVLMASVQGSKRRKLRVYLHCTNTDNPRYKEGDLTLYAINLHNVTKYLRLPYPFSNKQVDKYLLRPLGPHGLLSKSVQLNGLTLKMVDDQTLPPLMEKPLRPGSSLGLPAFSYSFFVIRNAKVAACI
T2 sequence (Q9Y251 36-109 limits assumed): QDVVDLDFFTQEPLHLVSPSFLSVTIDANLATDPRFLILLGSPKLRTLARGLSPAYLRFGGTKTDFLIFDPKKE
Kind of assay: Heparanase inhibition, 3H-radiolabelled HS cleavage assay. It counts as biochemical. The following applies: for inhibition: based on a comparison with heparin with 100% inhibition at 30 μg/ml, read-out: Relative inhibition (%); for EC50: heparanase inhibition, read-out: EC50 (converted); for inhibition at 10 µg/mL: read-out: Inhibition (%) at 10 μg/ml. Here is the method: Briefly, to an incubation mixture of […] containing ^3H-radiolabelled porcine mucosal HS […], 50 mM-sodium acetate buffer, pH 5.0, […] bovine serum albumin and the inhibitor to be tested, was added 10 ng of purified human platelet heparanase and the mixture incubated for 30 min. The reaction was terminated by freezing the assay tubes. The substrate was separated from the cleavage products on minicolumns of sepharose-bound histidine-rich glycoprotein (Freeman, C., and Parish, C. R. [1997], supra).
Inhibitory activity is based on a comparison with heparin with 100% inhibition at 30 μg/ml. The compounds were also tested at the same purity as in Example 15.

Another assay has as its target T3, IL-8 (Homo sapiens, UniProt P10145).
T3 sequence (P10145 21-99): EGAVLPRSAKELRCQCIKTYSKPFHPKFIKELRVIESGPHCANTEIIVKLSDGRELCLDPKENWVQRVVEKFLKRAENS
In words: Biacore biosensor: inhibition of IL-8 binding to immobilised heparin and heparan sulfate. The following applies: inhibitor 1.0 μM, IL-8 0.068 μM. Here is the method:
as §1
A general note: In SPR one partner is held on a chip, and binding of the other changes the refractive index at the surface.

Another assay addresses aFGF (Homo sapiens, UniProt P05230). In words: Biacore biosensor: inhibition of aFGF binding to immobilised heparin and heparan sulfate. The following applies: inhibitor 0.034 μM, aFGF 0.025 μM. Here is the method: as §1, §2
The target in assay [2] is T4, human leukocyte Cathepsin G (Homo sapiens, UniProt P08311).
T4 construct: human leukocyte Cathepsin G (100 ng protein); from tissue; host or cells: human leukocytes
T4 sequence (P08311 21-244): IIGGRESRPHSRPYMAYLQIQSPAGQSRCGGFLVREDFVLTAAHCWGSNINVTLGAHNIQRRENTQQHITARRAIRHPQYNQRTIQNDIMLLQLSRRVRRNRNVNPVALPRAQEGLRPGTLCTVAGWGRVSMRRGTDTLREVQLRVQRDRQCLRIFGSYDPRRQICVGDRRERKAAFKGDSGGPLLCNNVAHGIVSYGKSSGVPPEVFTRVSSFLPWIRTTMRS
Kind of assay: Cathepsin G inhibition, fluorogenic substrate, 96 well assay. The format is biochemical. To be noted: human leukocyte cathepsin G 100 ng, 37° C., 60 min, pH 6.6; read-out: Amount for 50% inhibition (converted). Here is the method: Cathepsin G activity was determined using a 96 well assay format in PVC microtitre U-bottom plates with activity determination by a fluorescence plate reader. Briefly, within a total incubation volume of 40 μl, human leukocyte Cathepsin G (100 ng protein) was added to a mixture of inhibitor and the fluorogenic substrate MeOSuc-ala-ala-pro-phe-AMAC in 50 mM-NaOAc buffer, pH 6.6 containing 50 mM NaCl and 0.1% (v/v) Brij 35. The mixture was incubated at 37° C. for 60 min, the reaction stopped by the addition of 40 μl of 250 mM acetic acid and the fluorescence determined with excitation at 360 nm and emitted light measured at 460 nm.
In this table, the linked cyclitol compound identifications are the same as those given in Section A above where the structures of the compounds are also given. With regard to the purity rating, a greater number of asterisks signifies a greater degree of purity with five asterisks signifying an essentially pure compound. The cathepsin G inhibition data are the concentrations of compounds required to inhibit the enzyme by 50%.

For another assay, the target named is bFGF (Homo sapiens, UniProt P09038). Kind of assay: Biacore biosensor: inhibition of bFGF binding to immobilised heparin and heparan sulfate. To be noted: for inhibition at 0.034 µM: inhibitor 0.034 μM, bFGF 0.034 μM. Here is the method: as §1, §2
bFGF, sequence (P09038 134-288 limits assumed, species assumed): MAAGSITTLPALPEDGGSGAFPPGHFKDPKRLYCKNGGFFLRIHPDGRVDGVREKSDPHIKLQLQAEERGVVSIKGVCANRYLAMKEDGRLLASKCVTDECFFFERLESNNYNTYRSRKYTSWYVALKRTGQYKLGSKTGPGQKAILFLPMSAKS
[3] abbreviates: immobilised heparan sulfate, read-out: Inhibition of binding of VEGF (HS).
Where [4] appears, read: immobilised heparin, read-out: Inhibition of binding of VEGF (Hep).
[5] abbreviates: immobilised heparan sulfate, read-out: Inhibition of binding of IL-8 (HS).
[6] abbreviates: immobilised heparin, read-out: Inhibition of binding of IL-8 (Hep).
The mark [7] stands for this setting: immobilised heparan sulfate, read-out: Inhibition of binding of aFGF (HS).
Setting [8] is: immobilised heparin, read-out: Inhibition of binding of aFGF (Hep).
[9] abbreviates: immobilised heparan sulfate, read-out: Inhibition of binding of bFGF (HS).
Setting [10] is: immobilised heparin, read-out: Inhibition of binding of bFGF (Hep).
The mark [11] stands for this setting: immobilised heparin, read-out: IC50, inhibition of bFGF binding (Hep).

aFGF, sequence (P05230 whole entry, species assumed): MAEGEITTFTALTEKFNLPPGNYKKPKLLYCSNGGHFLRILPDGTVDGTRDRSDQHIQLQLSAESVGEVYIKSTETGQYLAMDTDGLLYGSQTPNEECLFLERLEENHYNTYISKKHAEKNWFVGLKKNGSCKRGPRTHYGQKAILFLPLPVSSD

For the compound `O=S(=O)(O)O[C@H]1[C@H](OS(=O)(=O)O)[C@@H](N(CCCCCCCCN([C@H]2C=C[C@@H](OS(=O)(=O)O)[C@@H](OS(=O)(=O)O)[C@@H]2OS(=O)(=O)O)[C@H]2C=C[C@@H](OS(=O)(=O)O)[C@@H](OS(=O)(=O)O)[C@@H]2OS(=O)(=O)O)[C@H]2C=C[C@@H](OS(=O)(=O)O)[C@@H](OS(=O)(=O)O)[C@@H]2OS(=O)(=O)O)C=C[C@H]1OS(=O)(=O)O` [Compound 4i], the inhibition at 0.034 µM on VEGF (setting [3]) worked out at 71%; at VEGF (setting [4]) it was 70%; on aFGF (setting [7]), 28%; at aFGF (setting [8]) it was 30%; at bFGF (setting [9]), 51%; on bFGF (setting [10]), 45%. In addition, the inhibition in assay [1] was determined as 53%. Also, the EC50 in assay [1] is 16.1 µM. The inhibition at 10 µg/mL in assay [1] amounted to 39%. Further, the inhibition at 1 µM is 89% at IL-8 (setting [5]) and 95% on IL-8 (setting [6]). Further, the IC50 in assay [2] was 0.136 µM.
Consider `O=S(=O)(O)O[C@H]1[C@H](OS(=O)(=O)O)[C@@H](N(CCCCN([C@H]2C=C[C@@H](OS(=O)(=O)O)[C@@H](OS(=O)(=O)O)[C@@H]2OS(=O)(=O)O)[C@H]2C=C[C@@H](OS(=O)(=O)O)[C@@H](OS(=O)(=O)O)[C@@H]2OS(=O)(=O)O)[C@H]2C=C[C@@H](OS(=O)(=O)O)[C@@H](OS(=O)(=O)O)[C@@H]2OS(=O)(=O)O)C=C[C@H]1OS(=O)(=O)O` [Compound 4g], for which the inhibition at 0.034 µM is 10% at VEGF (setting [3]); 21% on VEGF (setting [4]); 43% at aFGF (setting [7]); 44% on aFGF (setting [8]); 44% on bFGF (setting [9]); 31% on bFGF (setting [10]). Besides, the inhibition in assay [1] was 57%. Further, the EC50 in assay [1] was 14.1 µM. Besides, in assay [1], the inhibition at 10 µg/mL was 42%. The inhibition at 1 µM at IL-8 (setting [5]) stood at 42%; at IL-8 (setting [6]), 67%. The values for the IC50 (in assay [2]; on bFGF (setting [11])) were 0.128 µM and greater than 0.25 µM, respectively.
On to `O=S(=O)(O)O[C@H]1[C@H](OS(=O)(=O)O)[C@@H](N(CCCCCCCN([C@H]2C=C[C@@H](OS(=O)(=O)O)[C@@H](OS(=O)(=O)O)[C@@H]2OS(=O)(=O)O)[C@H]2C=C[C@@H](OS(=O)(=O)O)[C@@H](OS(=O)(=O)O)[C@@H]2OS(=O)(=O)O)[C@H]2C=C[C@@H](OS(=O)(=O)O)[C@@H](OS(=O)(=O)O)[C@@H]2OS(=O)(=O)O)C=C[C@H]1OS(=O)(=O)O` [Compound 4h], for which the inhibition at 0.034 µM at VEGF (setting [3]) turned out to be 55%; at VEGF (setting [4]), 68%; at aFGF (setting [7]) it was 30%; at aFGF (setting [8]) it was 28%; at bFGF (setting [9]), 48%; on bFGF (setting [10]) it was 40%. Moreover, the inhibition in assay [1] worked out at 48%. The 50% effective concentration (EC50) in assay [1] was 20 µM. Also, in assay [1], the inhibition at 10 µg/mL amounted to 33%. The inhibition at 1 µM stood at 54% at IL-8 (setting [5]) and 52% on IL-8 (setting [6]). In addition, the IC50 in assay [2] is 0.318 µM.
For the compound `O=S(=O)(O)OC(CN([C@H]1C=C[C@@H](OS(=O)(=O)O)[C@@H](OS(=O)(=O)O)[C@@H]1OS(=O)(=O)O)[C@H]1C=C[C@@H](OS(=O)(=O)O)[C@@H](OS(=O)(=O)O)[C@@H]1OS(=O)(=O)O)CN([C@H]1C=C[C@@H](OS(=O)(=O)O)[C@@H](OS(=O)(=O)O)[C@@H]1OS(=O)(=O)O)[C@H]1C=C[C@@H](OS(=O)(=O)O)[C@@H](OS(=O)(=O)O)[C@@H]1OS(=O)(=O)O` [Compound 4l], the inhibition at 0.034 µM on VEGF (setting [3]) was 0%; on VEGF (setting [4]), 0%; at aFGF (setting [7]), 47%; at aFGF (setting [8]), 54%; at bFGF (setting [9]) it was 43%; at bFGF (setting [10]), 34%. Also, the inhibition in assay [1] came to 48%. For the same compound, the EC50 in assay [1] was 17 µM. Besides, the inhibition at 1 µM on IL-8 (setting [5]) was 46%; on IL-8 (setting [6]), 52%. In assay [2], the IC50 was 0.292 µM.
`O=S(=O)(O)O[C@H]1[C@H](OS(=O)(=O)O)[C@@H](N(CCN([C@H]2C=C[C@@H](OS(=O)(=O)O)[C@@H](OS(=O)(=O)O)[C@@H]2OS(=O)(=O)O)[C@H]2C=C[C@@H](OS(=O)(=O)O)[C@@H](OS(=O)(=O)O)[C@@H]2OS(=O)(=O)O)[C@H]2C=C[C@@H](OS(=O)(=O)O)[C@@H](OS(=O)(=O)O)[C@@H]2OS(=O)(=O)O)C=C[C@H]1OS(=O)(=O)O` [Compound 4f]: the inhibition at 0.034 µM on VEGF (setting [3]) turned out to be 0%; on VEGF (setting [4]) it was 0%; on aFGF (setting [7]) it was 68%; on aFGF (setting [8]), 65%; at bFGF (setting [9]) it was 19%; at bFGF (setting [10]), 15%. Moreover, in assay [1], the inhibition worked out at 60%. Further, the concentration for a half-maximal effect (EC50) in assay [1] was 11.1 µM. In assay [1], the inhibition at 10 µg/mL is 44%. Besides, the results for the inhibition at 1 µM on IL-8 (setting [5]) and on IL-8 (setting [6]) were 38% and 48%, respectively. Further, the IC50 was 0.189 µM in assay [2]; 0.24 µM on bFGF (immobilised heparan sulfate, read-out: IC50, inhibition of bFGF binding (HS)); greater than 0.25 µM on bFGF (setting [11]).

These data come from patent US7173019B2, “Linked cyclitols and their polysulfated derivatives” (The Australian National University, priority 2001, dated 2007).
